Reference: US20260092037A1, “CRYSTALLINE SALT FORMS OF N-((1-(2-(TERT-BUTYLAMINO)-2-OXOETHYL)PIPERIDIN-4-YL) METHYL)-3-CHLORO-5-FLUOROBENZAMIDE AND METHODS OF USE THEREOF” (priority 2023, published 2026)
Where two headings read alike, the source gives them in different places.

Legend:
[1] = X-ray powder diffraction (XRPD) of salt screen and scale-up products; type: physicochemical; details: salt screen
Text: The Rigaku Smart-Lab X-ray diffraction system was configured for reflection Bragg-Brentano geometry using a line source X-ray beam. The x-ray source is a Cu Long Fine Focus tube that was operated at 40 kV and 44 ma. That source provides an incident beam profile at the sample that changes from a narrow line at high angles to a broad rectangle at low angles. Beam conditioning slits are used on the line X-ray source to ensure that the maximum beam size is less than 10 mm both along the line and normal to the line. The Bragg-Brentano geometry is a para-focusing geometry controlled by passive divergence and receiving slits with the sample itself acting as the focusing component for the optics. The inherent resolution of Bragg-Brentano geometry is governed in part by the diffractometer radius and the width of the receiving slit used. Typically, the Rigaku Smart-Lab is operated to give peak widths of 0.1° 2θ or less. The axial divergence of the X-ray beam is controlled by 5.0-degree Soller slits in both the incident and diffracted beam paths.
Powder samples were prepared in a low background Si holder using light manual pressure to keep the sample surfaces flat and level with the reference surface of the sample holder. Each sample was analyzed from 2 to 40° 2θ using a continuous scan of 6° 2θ per minute with an effective step size of 0.02° 2θ.

[2] = system: absence seizures; details: childhood absence epilepsy, cited from earlier work
[3] = at 16 weeks, as assessed by video-EEG recordings

## CC(=O)O [Acetate]
[1]; E (evaporation), EtOH
  XRPD Pattern: API A (PO)
[1]; Grind, ACN
  XRPD Pattern: API A

## O=CO [Formate]
[1]; E (evaporation), EtOH
  XRPD Pattern: API A (PO)
[1]; Grind, ACN
  XRPD Pattern: API A

## N[C@@H](CCC(=O)O)C(=O)O [Glutamate]
[1]; Grind, ACN/water (9:1)
  XRPD Pattern: API A + acid
[1]; SL, ACN, 50° C.
  XRPD Pattern: API A + acid

## O=S(=O)(O)CCO [Isethionate]
[1]; Grind, ACN
  XRPD Pattern: API A + NC

## CC(C)C(=O)O [Isobutyrate]
[1]; E, MeOH
  XRPD Pattern: API A
[1]; Grind, ACN
  XRPD Pattern: API A

## O=C(O)CCC(=O)C(=O)O [Ketoglutarate]
[1]; E, MeOH/ACN (1:1)
  XRPD Pattern: NC + pks
[1]; Grind, ACN
  XRPD Pattern: API A + NC

## Nc1nnc(-c2cccc(Cl)c2Cl)c(N)n1 [Lamotrigine]
[2]; at 12 months
  patients in whom the seizures were completely controlled: 21%
[2]; [3]
  patients in whom the seizures were completely controlled: 29%

## CCC1(C)CC(=O)NC1=O (stereo not shown) [ethosuximide]
[2]; at 12 months
  patients in whom the seizures were completely controlled: 45%
[2]; [3]
  patients in whom the seizures were completely controlled: 53%

## Alginate
[1]; Grind, IPA
  XRPD Pattern: API A

## Ascorbate
[1]; E (evaporation), EtOH
  XRPD Pattern: API A (PO)
[1]; Grind, ACN
  XRPD Pattern: API A + acid

## Benzoate
[1]; E (evaporation), EtOH
  XRPD Pattern: API A + NC
[1]; Grind, ACN
  XRPD Pattern: API A + NC
[1]; SL, IPE, RT
  XRPD Pattern: API A

## Camphorate
[1]; E (evaporation), EtOH
  XRPD Pattern: API A (PO)
[1]; Grind, ACN
  XRPD Pattern: API A + acid

## Caprate
[1]; E (evaporation), EtOH
  XRPD Pattern: API A (PO)
[1]; Grind, ACN
  XRPD Pattern: API A + pks

## Caprylate
[1]; E (evaporation), EtOH
  XRPD Pattern: API A (PO)
[1]; Grind, ACN
  XRPD Pattern: API A

## Citrate
[1]; Grind, EtOAc
  XRPD Pattern: API A + acid + NC

## Gentisate
[1]; Grind, BuOAc
  XRPD Pattern: API A + NC

## Gluconate
[1]; E, MeOH/toluene (1:1), RT
  XRPD Pattern: API A
[1]; Grind, ACN
  XRPD Pattern: API A
[1]; LY, dioxane/water
  XRPD Pattern: API A + NC

## Glucuronate
[1]; Grind, acetone
  XRPD Pattern: API A + pks
[1]; LY, dioxane/water
  XRPD Pattern: API A + NC

## Hippurate
[1]; E (evaporation), EtOH
  XRPD Pattern: API A + NC
[1]; Grind, IPA
  XRPD Pattern: API A + acid

## Laurate
[1]; E, MeOH
  XRPD Pattern: API A + acid + pks
[1]; Grind, ACN
  XRPD Pattern: API A + acid + pks

## Malate
[1]; Grind, IPA
  XRPD Pattern: API A + NC

## Oleate
[1]; E, MeOH
  XRPD Pattern: API A (PO)
[1]; Grind, ACN
  XRPD Pattern: API A + NC

## Palmitate
[1]; E, MeOH
  XRPD Pattern: API A + acid
[1]; Grind, ACN
  XRPD Pattern: API A + acid

## Propionate
[1]; E, MeOH
  XRPD Pattern: API A
[1]; Grind, ACN
  XRPD Pattern: API A

## Pyroglutamate
[1]; Grind, MEK
  XRPD Pattern: API A + pks

## Stearate
[1]; E, MeOH
  XRPD Pattern: API A + acid
[1]; Grind, ACN
  XRPD Pattern: API A + acid

## Tartrate
[1]; Grind, IPA
  XRPD Pattern: API A + acid + NC
